Reference: publication PMC11984924, “Dipeptidic Phosphonates: Potent Inhibitors of Pseudomonas aeruginosa Elastase B Showing Efficacy in a Murine Keratitis Model” (Advanced Science, 2025)

Columns and labels:
[1] = target: T1, 5‐hydroxytryptamin transporter (5‐HTT) (Homo sapiens, UniProt P31645); experiment: SafetyScreen44: 5-HTT binding
T1 construct: Eurofins Cerep SA (CRO)
From the text: Moreover, we explored the safety profile of frontrunner (R)‐30 in more detail in order to detect additional crucial off‐target interactions. For this purpose, we employed the SafetyScreen44 in vitro panel comprising selected binding, inhibition and uptake assays.^[ [35] ^] The panel is a specialized pharmacological profiling tool that tests compounds against 44 key molecular targets, aiming to identify potential safety risks early in drug discovery. […]
The off-target Safety Screen44TM was performed by the CRO Eurofins Cerep SA (Celle-
L'Evescault, France) according to their protocols.[13] […]
MMP-1 MMP-2 MMP-3 TACE (ADAM17)
Compound [% inhibition at [% inhibition at [% inhibition at [% inhibition at 100

[2] = In vivo pharmacokinetic study in CD-1 mice, 30 mg/kg SC; settings: male, mouse, 30 mg/kg subcutaneous
Method: page 60: Figure S7: Basolateral concentration of 9 (A) and 30 (B) in the Calu-3 permeability model. […] For pharmacokinetic experiments, outbred male CD-1 mice (Charles River, Netherlands), 4 weeks old, were used. The animal studies were conducted in accordance with the recommendations of the European Community (Directive 2010/63/EU, 1st January 2013). All animal procedures were performed in strict accordance with the German regulations of the Society for Laboratory Animal Science (GV-SOLAS) and the European Health Law of the Federation of Laboratory Animal Science Associations (FELASA). Animals were excluded from further analysis if sacrifice was necessary according to the human endpoints established by the ethical board. All experiments were approved by the ethical board of the […] Verbraucherschutz und […], Oldenburg, Germany. 30 was subjected to a focused PK study and was administered 30 mg/kg SC. At time points t= […] euthanatized and blood was collected from the heart. For all PK studies, whole blood was collected into Eppendorf tubes coated with 0.5 M EDTA and immediately spun down at 13,000 rpm for 10 min at 4°C. The plasma was transferred into a new Eppendorf tube and then stored at -80°C until analysis. Then, a broncheoalveolar lavage was conducted using isotonic sodium chloride solution for all PK studies. For all PK studies, lung, kidney and liver were aseptically removed and homogenized using a Polytron (Kinematica) in isotonic sodium chloride solution. Organ samples were aliquoted into Eppendorf tubes and stored at -80°C until analysis. Moreover, spontaneous urine was also collected. […] system and coupled to an AB Sciex QTrap6500+ mass spectrometer as described previously.[10] Mass spectrometric conditions can be found in Table S5. First, a calibration curve was prepared by spiking different concentrations of 30 into the respective matrix (mouse […] (1 picture or pasted object on this page, not shown here) page 61: plasma (pooled, from CD-1 mice) for plasma samples, isotonic sodium chloride solution for BALF samples, lung tissue for lung samples, kidney tissue for kidney samples, liver tissue for liver samples and urine for urine samples). Caffeine was used as an internal standard. In addition, quality control samples (QCs) were prepared for 30 with the respective matrix. The following extraction procedure was used: 7.5 μl of a plasma sample (calibration samples, QCs […] internal standard for 5 min at 2000 rpm on an Eppendorf MixMate® vortex mixer. 10 μl of a urine sample (calibration samples, QCs or PK samples) was extracted with 40 μl of methanol containing 12.5 ng/ml of caffeine as internal standard for 5 min at 2000 rpm on an Eppendorf MixMate® vortex mixer. Then samples (plasma and urine) were spun down at 13.000 rpm for 5 min. Supernatants were transferred to standard HPLC-glass vials. 50 μl of a BALF / lung tissue / kidney tissue or liver tissue sample (calibration samples, QCs or PK samples) were extracted with 50 μl of methanol and 1 μl caffeine (concentration 1 μg/ml in methanol) for 5 min at 800 rpm on an Eppendorf MixMate® vortex mixer. Then samples (BALF, liver, kidney, lung) were spun down at 4,000 rpm for 40 min at 4°C. Supernatants were transferred to 96well V-bottom plates (Greiner). Urea was used to enable calculation of epithelial lining fluid (ELF) concentrations. Peak areas of each sample and of the corresponding internal standard were analyzed using MultiQuant 3.0 software (AB Sciex). Peak areas of the respective sample were normalized to the internal standard peak area. Peaks of PK samples were quantified using the calibration curve. The accuracy of the calibration curve was determined using QCs independently prepared on different days. PK parameters were determined using a non- compartmental analysis with PKSolver.[11] ELF concentrations were calculated using the following formula (2).[12] (1) V_ELF=V_BALF × (Urea_BALF)/(Urea_Plasma ) (2) c_ELF=c_BALF× V_BALF/V_ELF S60

zebrafish embryos = experiment: Zebrafish embryo toxicity; assay type: in vivo; settings: up to 100 µM, up to five days post fertilization
Method: Table S8: Percent (%) inhibition of the metabolic activity of three human cell lines HepG2 (hepatocellular carcinoma cells), HEK293 (human embryonic kidney 293 cells) and A549 (lung carcinoma epithelial cells). Results are means and SD of at least two independent ex periments.
3.10 Evaluation of Zebrafish embryo toxicity
The experiment was performed according to a procedure described in the literature with minor modifications using zebrafish embryos of the AB wild -type line at 1 day post fertilization (dpf). A detailed protocol has been given in our recent publication.[16]
Starting exposure ar 2 dpf. Ten larvae were tested for each condition. Dpf: days post fertilization.
3.11 Tolerability study in male CD1 mice
This in vivo experiment was carried out at the CRO Selvita (Zagreb, Croatia). The study was performed in an AAALAC I- approved Facility. The standard study plan relating to this study was reviewed by the Ethics Committee (CARE- Zagreb) as required by International Laws/Regulations and Croatian Low on Animal Welfare (“The Animal Protection Act”, Official Gazette, NN 135/06 and NN 37/13) and Animal Welfare Officer. Animals were kept in solid […]
bottom cages ([…] S.p A., Italy, Type III polysulphone cage); 425 mm x 266 mm x 180 mm; 3 animals in each cage. The animals were kept on 4 cm thick layer of corn cob grit, […]
(1 picture or pasted object on this page, not shown here)

T1 sequence (P31645 whole entry): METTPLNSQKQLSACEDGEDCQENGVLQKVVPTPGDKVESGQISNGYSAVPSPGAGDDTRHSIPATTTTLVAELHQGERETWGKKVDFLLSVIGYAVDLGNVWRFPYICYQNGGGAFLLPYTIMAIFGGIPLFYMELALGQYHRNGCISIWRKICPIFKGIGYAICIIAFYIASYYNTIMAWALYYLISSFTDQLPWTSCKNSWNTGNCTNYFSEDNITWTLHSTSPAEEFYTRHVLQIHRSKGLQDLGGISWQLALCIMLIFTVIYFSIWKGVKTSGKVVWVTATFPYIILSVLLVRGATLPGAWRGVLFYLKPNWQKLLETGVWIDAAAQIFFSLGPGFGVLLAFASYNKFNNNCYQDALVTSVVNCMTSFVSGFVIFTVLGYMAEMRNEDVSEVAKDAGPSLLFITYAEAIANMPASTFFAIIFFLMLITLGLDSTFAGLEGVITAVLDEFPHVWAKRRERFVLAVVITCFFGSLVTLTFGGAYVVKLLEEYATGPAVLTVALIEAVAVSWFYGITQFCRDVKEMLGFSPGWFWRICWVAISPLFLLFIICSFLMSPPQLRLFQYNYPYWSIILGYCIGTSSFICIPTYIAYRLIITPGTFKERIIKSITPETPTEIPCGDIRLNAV

SMILES | inhibition at 100 µM [1] | Kp ([2]; CD-1, epithelial lining fluid (ELF) / plasma, sc, read-out: ELF/plasma ratio) | AUC(0-t) ([2]; CD-1, sc, plasma) | CL/F ([2]; CD-1, sc, plasma) | Cmax ([2]; CD-1, sc, plasma) | MRT ([2]; CD-1, sc, plasma) | Tmax ([2]; CD-1, sc, plasma) | half-life ([2]; CD-1, sc, plasma) | Zebrafish embryo toxicity (zebrafish embryos)
CC(=O)c1ccc(NC(=O)[C@@H](NC(=O)[C@@H](CC(C)C)P(=O)(O)O)C(C)C)cc1 [(R)‐30] | 84.8% |  |  |  |  |  |  |  | 
CC(=O)c1ccc(NC(=O)[C@@H](NC(=O)C(CC(C)C)P(=O)(O)O)C(C)C)cc1 (stereo partly drawn) [compound 30] |  | ~0.38 | 249 ± 15.5 µg·h/mL | 1.3 ± 0.3 mL/min/kg | 32200 ± 8500 ng/mL | 24.6 ± 16 h | 45 ± 24 min | 1110 ± 660 min | no signs of toxicity
